This note sets out measurements from the supplement of paper PMC12076712.

Usually pIC50 stands for the negative decadic logarithm of the IC50, by convention in mol/L. Read a high pIC50 as a small IC50.

Common to all, as to assay: pIC50, competition of probe 3 labelling in live cells
What all share (conditions): cell material: Jurkat cells

One test addresses T1, CDKL5 (UniProt O76039).
T1 sequence (whole entry): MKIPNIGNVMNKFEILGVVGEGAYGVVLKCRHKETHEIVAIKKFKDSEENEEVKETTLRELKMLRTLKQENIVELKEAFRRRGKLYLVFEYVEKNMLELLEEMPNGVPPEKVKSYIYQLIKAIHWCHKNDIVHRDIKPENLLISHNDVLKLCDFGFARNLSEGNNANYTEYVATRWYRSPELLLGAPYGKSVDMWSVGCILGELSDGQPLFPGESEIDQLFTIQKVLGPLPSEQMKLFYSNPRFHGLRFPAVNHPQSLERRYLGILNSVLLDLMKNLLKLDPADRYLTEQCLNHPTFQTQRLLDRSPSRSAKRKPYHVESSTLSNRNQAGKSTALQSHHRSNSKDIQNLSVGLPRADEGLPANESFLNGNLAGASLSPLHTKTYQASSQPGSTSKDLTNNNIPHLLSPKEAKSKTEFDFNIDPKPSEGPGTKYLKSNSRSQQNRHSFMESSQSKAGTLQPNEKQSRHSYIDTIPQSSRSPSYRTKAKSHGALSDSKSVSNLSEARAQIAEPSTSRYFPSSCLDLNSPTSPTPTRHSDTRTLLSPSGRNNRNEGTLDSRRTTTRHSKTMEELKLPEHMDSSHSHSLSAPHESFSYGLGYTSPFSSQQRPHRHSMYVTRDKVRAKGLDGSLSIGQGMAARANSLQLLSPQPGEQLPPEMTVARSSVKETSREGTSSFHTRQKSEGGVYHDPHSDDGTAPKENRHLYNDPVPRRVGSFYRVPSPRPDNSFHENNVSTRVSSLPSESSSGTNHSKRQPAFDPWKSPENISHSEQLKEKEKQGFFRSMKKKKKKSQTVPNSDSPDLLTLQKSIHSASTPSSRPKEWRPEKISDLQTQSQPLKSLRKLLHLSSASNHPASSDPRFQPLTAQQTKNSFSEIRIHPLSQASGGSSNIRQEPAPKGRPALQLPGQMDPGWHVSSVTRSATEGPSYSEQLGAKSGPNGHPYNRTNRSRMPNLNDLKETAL

A further test has as its target T2, IRAK4 (UniProt Q9NWZ3).
T2 sequence (whole entry): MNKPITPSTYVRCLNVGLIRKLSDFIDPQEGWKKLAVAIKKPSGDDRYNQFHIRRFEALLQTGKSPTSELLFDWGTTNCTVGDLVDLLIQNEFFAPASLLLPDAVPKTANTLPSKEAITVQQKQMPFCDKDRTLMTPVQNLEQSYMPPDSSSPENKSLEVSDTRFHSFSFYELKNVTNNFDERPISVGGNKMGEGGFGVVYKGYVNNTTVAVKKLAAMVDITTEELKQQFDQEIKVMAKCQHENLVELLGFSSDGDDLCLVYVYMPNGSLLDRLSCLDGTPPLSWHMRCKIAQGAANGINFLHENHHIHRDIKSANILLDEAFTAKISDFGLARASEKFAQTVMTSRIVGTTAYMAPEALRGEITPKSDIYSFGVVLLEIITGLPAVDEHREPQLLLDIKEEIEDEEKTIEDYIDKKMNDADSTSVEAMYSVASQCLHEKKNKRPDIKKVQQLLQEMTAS

In another test the target is T3, ITK (UniProt Q08881).
T3 sequence (whole entry): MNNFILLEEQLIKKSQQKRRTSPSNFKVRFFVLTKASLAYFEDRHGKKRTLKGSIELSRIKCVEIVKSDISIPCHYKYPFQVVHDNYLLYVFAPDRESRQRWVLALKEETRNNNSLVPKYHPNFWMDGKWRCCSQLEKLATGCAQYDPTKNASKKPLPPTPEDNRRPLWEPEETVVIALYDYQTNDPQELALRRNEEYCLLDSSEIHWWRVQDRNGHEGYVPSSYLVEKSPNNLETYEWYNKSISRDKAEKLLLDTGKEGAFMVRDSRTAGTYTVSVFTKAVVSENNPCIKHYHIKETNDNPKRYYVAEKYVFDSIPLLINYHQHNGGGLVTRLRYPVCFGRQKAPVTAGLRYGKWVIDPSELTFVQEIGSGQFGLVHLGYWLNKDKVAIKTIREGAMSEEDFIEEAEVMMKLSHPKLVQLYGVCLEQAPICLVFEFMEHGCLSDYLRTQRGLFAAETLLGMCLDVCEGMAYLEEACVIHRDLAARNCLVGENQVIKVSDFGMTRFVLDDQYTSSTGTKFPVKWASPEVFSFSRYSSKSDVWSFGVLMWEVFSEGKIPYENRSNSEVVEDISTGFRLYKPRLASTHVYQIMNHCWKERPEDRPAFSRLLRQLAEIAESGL

For another test, the target named is MGLL (UniProt Q99685).
The target in the next test is UniProt O96017.
Sequence of UniProt O96017 (O96017 whole entry): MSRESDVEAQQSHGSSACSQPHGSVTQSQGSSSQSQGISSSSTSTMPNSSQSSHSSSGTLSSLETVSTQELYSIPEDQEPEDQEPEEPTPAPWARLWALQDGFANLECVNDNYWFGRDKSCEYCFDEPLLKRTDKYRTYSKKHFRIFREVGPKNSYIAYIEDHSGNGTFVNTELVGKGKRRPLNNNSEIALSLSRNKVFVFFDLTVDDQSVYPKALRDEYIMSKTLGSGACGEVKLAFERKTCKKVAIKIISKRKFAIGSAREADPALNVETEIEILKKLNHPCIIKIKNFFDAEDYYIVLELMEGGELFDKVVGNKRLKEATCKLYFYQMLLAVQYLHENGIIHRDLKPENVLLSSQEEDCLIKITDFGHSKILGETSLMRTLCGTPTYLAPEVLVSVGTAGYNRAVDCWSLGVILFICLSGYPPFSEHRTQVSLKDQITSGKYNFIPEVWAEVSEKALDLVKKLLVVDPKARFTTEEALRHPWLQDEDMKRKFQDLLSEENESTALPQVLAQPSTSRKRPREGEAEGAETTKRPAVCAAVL

Sequence of MGLL (Q99685 whole entry): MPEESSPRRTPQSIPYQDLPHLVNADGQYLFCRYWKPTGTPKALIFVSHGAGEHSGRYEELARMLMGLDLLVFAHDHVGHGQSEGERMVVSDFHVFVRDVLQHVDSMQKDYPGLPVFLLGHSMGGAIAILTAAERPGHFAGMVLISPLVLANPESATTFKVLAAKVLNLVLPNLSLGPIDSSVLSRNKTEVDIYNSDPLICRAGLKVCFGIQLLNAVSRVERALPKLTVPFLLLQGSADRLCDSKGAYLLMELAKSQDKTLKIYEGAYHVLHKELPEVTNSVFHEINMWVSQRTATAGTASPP

On to `CCc1cnn2c(NCc3ccc[n+]([O-])c3)cc(N3CCCC[C@H]3CCO)nc12` [dinaciclib], for which the pIC50 at CDKL5 is 6.12; on IRAK4, less than 4.52; on ITK, less than 4.52; at MGLL it was less than 4.52; on UniProt O96017, less than 4.52.
On to `CC#CC(=O)Nc1ccc2ncnc(Nc3cccc(Br)c3)c2c1` [EKI-785], for which the pIC50 on CDKL5, at IRAK4, at ITK, at MGLL and on UniProt O96017 was less than 4.52 each time.
